From PubChem BioAssay AID248 (DTP/NCI, 2004) come the findings set out here.

Several values for one entry are separate records, joined by “and”; a condition that tells them apart may be missing. Identical values can stand only once. Toxic doses and inconclusive results are not listed.

In the assay the test system is L1210 leukemia ip in BDF1 mice, survival T/C. As to the kind of experiment: NCI In Vivo Anticancer Drug Screen. Data for tumor model L1210 Leukemia (intraperitoneal) in B6D2F1 (BDF1) mice. The conditions noted are these: endpoint: mean survival time, higher = longer survival. An outline of the steps:
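Ratio derived from survival: compound-dosed mice over vehicle-dosed mice, all bearing a transplantable tumor.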

Setting [1] is: dose: 100.0 mg/kg/injection, schedule: Q04DX003 (ip), vehicle: Klucel (hydroxypropylcellulose) (HPC).
The mark [2] stands for this setting: dose: 200.0 mg/kg/injection, schedule: Q04DX003 (ip), vehicle: Klucel (hydroxypropylcellulose) (HPC).
[3] abbreviates: dose: 400.0 mg/kg/injection, schedule: Q04DX003 (ip), vehicle: Klucel (hydroxypropylcellulose) (HPC).
Setting [4] is: dose: 100.0 mg/kg/injection, schedule: Q01DX009 (ip), vehicle: Klucel (hydroxypropylcellulose) (HPC).
The mark [5] stands for this setting: dose: 200.0 mg/kg/injection, schedule: Q01DX009 (ip), vehicle: Klucel (hydroxypropylcellulose) (HPC).
Where [6] appears, read: dose: 100.0 mg/kg/injection, schedule: Q01DX001 (ip), vehicle: carboxymethylcellulose (CMC).
Where [7] appears, read: dose: 200.0 mg/kg/injection, schedule: Q01DX001 (ip), vehicle: carboxymethylcellulose (CMC).
The mark [8] stands for this setting: dose: 400.0 mg/kg/injection, schedule: Q01DX001 (ip), vehicle: carboxymethylcellulose (CMC).
[9] abbreviates: dose: 100.0 mg/kg/injection, schedule: Q04DX003 (ip), vehicle: saline with Tween-80.
Where [10] appears, read: dose: 200.0 mg/kg/injection, schedule: Q04DX003 (ip), vehicle: saline with Tween-80.
Where [11] appears, read: dose: 100.0 mg/kg/injection, schedule: Q01DX009 (ip), vehicle: saline with Tween-80.

`CN(C)CCCn1nc(-c2ccccc2)oc1=O`: the T/C is 96 % of control (dose: 75.0 mg/kg/injection, schedule: Q01DX001 (ip), vehicle: saline) and 87 % of control (dose: 150.0 mg/kg/injection, schedule: Q01DX001 (ip), vehicle: saline).
For `O=[N+]([O-])c1ccccc1C=Nc1ccccc1O`, the T/C runs as follows: under setting [1], 103 % of control; under setting [2], 97 % of control; under setting [3], 94 % of control.
For the compound `O=Nc1[nH]c(O)c2ccccc12`, the T/C runs as follows: under setting [1], 97 % of control and 91 % of control; under setting [2], 99 % of control and 103 % of control; under setting [3], 103 % of control and 89 % of control.
In the case of `Cc1cc(C(=O)NC(CCC(=O)O)C(=O)O)cc(C)c1N(C)Cc1cnc2nc(N)nc(N)c2n1` (stereo unspecified), the T/C by setting is: (dose: 3.13 mg/kg/injection, schedule: Q01DX009 (ip), vehicle: saline) 158 % of control; (dose: 6.25 mg/kg/injection, schedule: Q01DX009 (ip), vehicle: saline) 161 % of control; (dose: 12.5 mg/kg/injection, schedule: Q01DX009 (ip), vehicle: saline) 153 % of control and 165 % of control; (dose: 50.0 mg/kg/injection, schedule: Q01DX009 (ip), vehicle: sodium bicarbonate) 101 % of control.
For `CCCOP(=S)(NCCCOC)OCCC`, the T/C (dose: 50.0 mg/kg/injection, schedule: Q01DX009 (ip), vehicle: other) is 94 % of control; the T/C (dose: 50.0 mg/kg/injection, schedule: Q04DX003 (ip), vehicle: other) is 95 % of control; the T/C (dose: 100.0 mg/kg/injection, schedule: Q01DX001 (ip), vehicle: other) is 96 % of control; the T/C (dose: 100.0 mg/kg/injection, schedule: Q01DX009 (ip), vehicle: other) was 100 % of control; the T/C (dose: 100.0 mg/kg/injection, schedule: Q04DX003 (ip), vehicle: other) is 95 % of control; the T/C (dose: 200.0 mg/kg/injection, schedule: Q01DX001 (ip), vehicle: other) was 102 % of control. Further, the T/C is, setting by setting: (dose: 200.0 mg/kg/injection, schedule: Q01DX009 (ip), vehicle: other) 94 % of control; (dose: 200.0 mg/kg/injection, schedule: Q04DX003 (ip), vehicle: other) 97 % of control.
Take `Cc1cc(=O)[nH]c2nc3ccccc3n12`: the T/C (dose: 100.0 mg/kg/injection, schedule: Q01DX001 (ip), vehicle: Klucel (hydroxypropylcellulose) (HPC)) is 108 % of control; the T/C under setting [1] was 96 % of control; the T/C (dose: 200.0 mg/kg/injection, schedule: Q01DX001 (ip), vehicle: Klucel (hydroxypropylcellulose) (HPC)) was 95 % of control; the T/C under setting [2] is 96 % of control; the T/C (dose: 400.0 mg/kg/injection, schedule: Q01DX001 (ip), vehicle: Klucel (hydroxypropylcellulose) (HPC)) is 111 % of control; the T/C under setting [3] was 104 % of control.
With `O=C(Nc1c[nH]c(=O)[nH]c1=O)Oc1ccccc1`, the T/C under setting [4] is 98 % of control; the T/C under setting [1] was 100 % of control; the T/C under setting [5] was 95 % of control; the T/C under setting [2] is 88 % of control; the T/C (dose: 400.0 mg/kg/injection, schedule: Q01DX009 (ip), vehicle: Klucel (hydroxypropylcellulose) (HPC)) is 93 % of control; the T/C under setting [3] is 100 % of control.
For `CCC1CN1P1(=O)OCC(C)(N)CO1` (stereo unspecified), the T/C is, setting by setting: under setting [6], 104 % of control; under setting [7], 101 % of control; under setting [8], 101 % of control.
Turning to `CCN(CC)CCCC(C)Nc1cc(N)nc2nc(-c3ccc(Cl)cc3)c(-c3ccc(Cl)cc3)nc12` (stereo unspecified), the T/C by setting is: (dose: 37.5 mg/kg/injection, schedule: Q01DX009 (ip), vehicle: Klucel (hydroxypropylcellulose) (HPC)) 95 % of control; (dose: 37.5 mg/kg/injection, schedule: Q04DX003 (ip), vehicle: Klucel (hydroxypropylcellulose) (HPC)) 98 % of control; (dose: 75.0 mg/kg/injection, schedule: Q01DX001 (ip), vehicle: other) 97 % of control; (dose: 75.0 mg/kg/injection, schedule: Q01DX009 (ip), vehicle: Klucel (hydroxypropylcellulose) (HPC)) 90 % of control; (dose: 75.0 mg/kg/injection, schedule: Q04DX003 (ip), vehicle: Klucel (hydroxypropylcellulose) (HPC)) 102 % of control; (dose: 150.0 mg/kg/injection, schedule: Q04DX003 (ip), vehicle: Klucel (hydroxypropylcellulose) (HPC)) 93 % of control.
On to `Cn1c(C(C)(C)O)cc2ccccc21`, for which the T/C runs as follows: under setting [9], 102 % of control; under setting [10], 107 % of control; (dose: 400.0 mg/kg/injection, schedule: Q04DX003 (ip), vehicle: saline with Tween-80) 100 % of control.
On to `COc1cc2c(cc1O)CN(CCC(C)=O)CC2O` (stereo unspecified), for which the T/C was 101 % of control (dose: 25.0 mg/kg/injection, schedule: Q01DX009 (ip), vehicle: saline); 93 % of control (dose: 50.0 mg/kg/injection, schedule: Q01DX009 (ip), vehicle: saline); 86 % of control (dose: 100.0 mg/kg/injection, schedule: Q01DX009 (ip), vehicle: saline).
As for `CC1(C)N=C(N)N=C(N)N1c1ccc(CCc2ccc(S(=O)(=O)F)cc2)cc1`, the T/C runs as follows: (dose: 100.0 mg/kg/injection, schedule: Q01DX001 (ip), vehicle: saline with Tween-80) 97 % of control; (dose: 200.0 mg/kg/injection, schedule: Q01DX001 (ip), vehicle: saline with Tween-80) 97 % of control; (dose: 400.0 mg/kg/injection, schedule: Q01DX001 (ip), vehicle: saline with Tween-80) 102 % of control.
With `COc1ccc(OC)c(-c2csc(=O)s2)c1`, the T/C was 97 % of control (dose: 50.0 mg/kg/injection, schedule: Q04DX002 (ip), vehicle: Klucel (hydroxypropylcellulose) (HPC)) and 111 % of control (dose: 100.0 mg/kg/injection, schedule: Q04DX002 (ip), vehicle: Klucel (hydroxypropylcellulose) (HPC)).
Turning to `CCOC(=O)c1cc(C(=O)OCC)c[n+](CCCl)c1`, the T/C was 104 % of control (dose: 8.0 mg/kg/injection, schedule: Q01DX010 (ip), vehicle: other); 104 % of control (dose: 16.0 mg/kg/injection, schedule: Q01DX010 (ip), vehicle: other); 111 % of control (dose: 32.0 mg/kg/injection, schedule: Q01DX010 (ip), vehicle: other); 109 % of control (dose: 64.0 mg/kg/injection, schedule: Q01DX010 (ip), vehicle: other); 105 % of control (dose: 64.0 mg/kg/injection, schedule: Q01DX Z (ip), vehicle: other).
Take `CC(=O)N1Cc2ncnc(N)c2C1`: the T/C is 101 % of control under setting [6], 95 % of control under setting [7] and 101 % of control under setting [8].
As to `c1ccc(N=NC(N=Nc2ccccc2)=P(c2ccccc2)(c2ccccc2)c2ccccc2)cc1`, the T/C runs as follows: under setting [4], 97 % of control; under setting [5], 108 % of control.
On to `COc1ccc(/C=[N+](\[O-])c2ccccc2)cc1`, for which the T/C runs as follows: (dose: 50.0 mg/kg/injection, schedule: Q01DX001 (ip), vehicle: saline) 110 % of control; (dose: 100.0 mg/kg/injection, schedule: Q01DX001 (ip), vehicle: saline) 112 % of control; (dose: 200.0 mg/kg/injection, schedule: Q01DX001 (ip), vehicle: saline) 112 % of control; (dose: 400.0 mg/kg/injection, schedule: Q01DX001 (ip), vehicle: saline) 118 % of control.
In the case of `N#CCCCCN1C(=O)c2ccccc2C1=O`, the T/C was 94 % of control (dose: 50.0 mg/kg/injection, schedule: Q01DX009 (ip), vehicle: saline with Tween-80); 94 % of control under setting [11]; 98 % of control under setting [9]; 97 % of control under setting [10].
On to `O=C(Nc1cccc(F)c1)OCc1ccco1`, for which the T/C reads like this: (dose: 100.0 mg/kg/injection, schedule: Q01DX009 (sc), vehicle: olive oil, sesame oil, peanut oil) 95 % of control; (dose: 200.0 mg/kg/injection, schedule: Q01DX009 (sc), vehicle: olive oil, sesame oil, peanut oil) 96 % of control; (dose: 400.0 mg/kg/injection, schedule: Q01DX009 (sc), vehicle: olive oil, sesame oil, peanut oil) 95 % of control.
On to `COc1ccc(/C=C(/C(=O)c2ccc(O)cc2)c2ccccc2)cc1`, for which the T/C was 87 % of control under setting [6], 89 % of control under setting [7] and 87 % of control under setting [8].
Turning to `CCN(CC)C(=O)CCc1ccccc1`, the T/C was 108 % of control under setting [11] and 100 % of control (dose: 200.0 mg/kg/injection, schedule: Q01DX009 (ip), vehicle: saline with Tween-80).
For the compound `Cc1cc(Nc2ccc(C)c(C)c2)nc(N)n1`, the T/C (dose: 100.0 mg/kg/injection, schedule: Q01DX Z (ip), vehicle: methylcellulose (MC)) was 108 % of control.
With `COc1cc([N+](=O)[O-])c2c(ccc[n+]2C)c1OC`, the T/C runs as follows: under setting [9], 98 % of control; under setting [10], 89 % of control.
